Experimental data from publication PMC6524873 (TH Open: Companion Journal to Thrombosis and Haemostasis, 2018).

Assays:
factor Xa [1] = biological target: T1, factor Xa (Homo sapiens, UniProt P00742); experiment: Rate constants of inhibition of factor Xa (Pefafluor Xa, mixed inhibition model, Scheme 1); assay type: biochemical; design: factor Xa and thrombin were purchased from Enzyme Research Laboratories; purchased Enzyme Research Laboratories (South Bend, IN)
[2] = biological target: factor Xa incorporated into the prothrombinase complex (Homo sapiens, UniProt P00742); experiment: Factor Xa chromogenic activity in the presence of factor Va, PCPS and prothrombin (hirudin added); conditions: dose-dependent, data not shown
Chain of factor Xa incorporated into the prothrombinase complex (P00742 41-179 limits assumed): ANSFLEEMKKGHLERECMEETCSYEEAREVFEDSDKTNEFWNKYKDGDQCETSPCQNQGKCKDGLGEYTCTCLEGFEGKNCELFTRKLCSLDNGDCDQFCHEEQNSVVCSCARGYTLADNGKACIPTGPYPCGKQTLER
Chain of factor Xa incorporated into the prothrombinase complex (P00742 235-488 limits assumed): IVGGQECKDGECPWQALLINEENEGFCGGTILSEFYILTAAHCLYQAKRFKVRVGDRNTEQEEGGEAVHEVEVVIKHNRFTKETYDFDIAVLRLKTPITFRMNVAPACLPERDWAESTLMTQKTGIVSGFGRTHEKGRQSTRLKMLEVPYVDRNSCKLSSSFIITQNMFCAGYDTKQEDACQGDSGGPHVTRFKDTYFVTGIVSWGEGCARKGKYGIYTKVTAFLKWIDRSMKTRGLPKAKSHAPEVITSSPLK
Chain of factor Xa incorporated into the prothrombinase complex (P12259 29-737 partner limits assumed): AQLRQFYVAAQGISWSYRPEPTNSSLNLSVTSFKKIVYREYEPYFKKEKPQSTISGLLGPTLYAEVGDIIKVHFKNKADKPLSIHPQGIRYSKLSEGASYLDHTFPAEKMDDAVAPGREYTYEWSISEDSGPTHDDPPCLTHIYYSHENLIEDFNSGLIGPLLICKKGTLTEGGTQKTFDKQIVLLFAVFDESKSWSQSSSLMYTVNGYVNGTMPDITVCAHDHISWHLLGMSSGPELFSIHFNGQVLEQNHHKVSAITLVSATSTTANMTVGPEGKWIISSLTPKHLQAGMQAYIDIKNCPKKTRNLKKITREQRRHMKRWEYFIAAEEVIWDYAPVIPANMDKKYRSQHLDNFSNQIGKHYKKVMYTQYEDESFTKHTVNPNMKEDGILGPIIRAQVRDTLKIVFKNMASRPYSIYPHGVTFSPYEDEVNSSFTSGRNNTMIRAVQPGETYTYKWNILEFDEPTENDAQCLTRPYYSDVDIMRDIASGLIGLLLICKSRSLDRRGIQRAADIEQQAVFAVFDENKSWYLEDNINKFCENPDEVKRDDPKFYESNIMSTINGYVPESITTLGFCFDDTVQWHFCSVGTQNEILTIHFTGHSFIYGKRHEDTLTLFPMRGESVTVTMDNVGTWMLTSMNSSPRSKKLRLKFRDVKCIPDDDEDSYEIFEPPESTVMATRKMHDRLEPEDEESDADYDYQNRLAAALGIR
Chain of factor Xa incorporated into the prothrombinase complex (P12259 1574-2224 partner limits assumed): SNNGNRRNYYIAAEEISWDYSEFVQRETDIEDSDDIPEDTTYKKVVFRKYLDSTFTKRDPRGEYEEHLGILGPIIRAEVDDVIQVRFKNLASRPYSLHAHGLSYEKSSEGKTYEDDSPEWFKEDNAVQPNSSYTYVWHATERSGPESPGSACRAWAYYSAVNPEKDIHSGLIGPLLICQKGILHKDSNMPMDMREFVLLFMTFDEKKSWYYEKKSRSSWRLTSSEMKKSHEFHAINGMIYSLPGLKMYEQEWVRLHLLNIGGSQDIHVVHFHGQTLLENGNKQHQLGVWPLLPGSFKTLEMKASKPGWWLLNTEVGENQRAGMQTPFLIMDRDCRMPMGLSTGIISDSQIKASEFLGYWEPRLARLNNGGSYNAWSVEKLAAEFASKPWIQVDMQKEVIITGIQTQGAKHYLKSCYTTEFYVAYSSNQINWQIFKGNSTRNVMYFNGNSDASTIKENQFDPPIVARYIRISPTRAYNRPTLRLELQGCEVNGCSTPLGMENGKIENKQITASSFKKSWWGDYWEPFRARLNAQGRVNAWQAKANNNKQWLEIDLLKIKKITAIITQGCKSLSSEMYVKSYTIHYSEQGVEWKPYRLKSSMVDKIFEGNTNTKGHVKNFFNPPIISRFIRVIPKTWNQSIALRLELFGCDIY

human plasma [3] = experiment: Activated partial thromboplastin time (aPTT) in pooled normal human plasma; assay type: biochemical; conditions: up to 1,100 ng/mL
Description: (§1) The ranges of inhibitor concentrations were chosen to encompass the peak and trough plasma levels measured in patients treated with these agents. [26] The PT was performed using HemosIL HS PLUS (Instrumentation Laboratory, Lexington, Massachusetts, United States) on an ACL 7000 coagulometer (Instrumentation Laboratory) according to the manufacturer's instructions. The aPTT was performed using Actin FSL reagent (Siemens, Marburg, Germany) on a BCS XP analyzer (Siemens) according to the manufacturer's instructions. Assays were performed three times in duplicate at 37 ° C. These PT and aPTT reagents were chosen because of their wide availability and their reported sensitivities to rivaroxaban and apixaban. [27]

[4] = biological target: T2, factor Xa incorporated in prothrombinase (Homo sapiens, UniProt P00742); experiment: Rate constants of inhibition of factor Xa in prothrombinase (prothrombin activation, thrombin-DAPA fluorescence, Scheme 2)
T2 sequence (P00742 41-179 limits assumed): as the sequence (P00742 41-179 limits assumed) above
T2 sequence (P00742 235-488 limits assumed): as the sequence (P00742 235-488 limits assumed) above
T2 sequence (P12259 29-737 partner limits assumed): as the sequence (P12259 29-737 partner limits assumed) above
T2 sequence (P12259 1574-2224 partner limits assumed): as the sequence (P12259 1574-2224 partner limits assumed) above

[5] = biological target: T2, factor Xa incorporated in prothrombinase; experiment: Rate constants of inhibition of prothrombinase with rMZ as substrate (meizothrombin-DAPA fluorescence); conditions: 37°C
human plasma [6] = experiment: Prothrombin time (PT) in pooled normal human plasma; assay type: biochemical; conditions: up to 1,100 ng/mL
Description: as §1

[7] = tested on: thrombin generation in plasma; experiment: Plasma-based calibrated thrombin generation assay; assay type: biochemical, human; conditions: 3 pM tissue factor, concentration-dependent
factor Xa [8] = biological target: T1, factor Xa; experiment: biochemical; conditions: read-out: inhibition of factor Xa chromogenic activity
[9] = 37°C, […] inhibitor, 100 µM Pefafluor Xa, […] factor Xa
[10] = 37°C, prothrombinase in complex with either form of meizothrombin
[11] = 37°C, prothrombinase in complex with prothrombin
[12] = prothrombin substrate, 37°C, prothrombinase without prothrombin

T1 sequence (P00742 41-179 limits assumed): as the sequence (P00742 41-179 limits assumed) above
T1 sequence (P00742 235-488 limits assumed): as the sequence (P00742 235-488 limits assumed) above

SMILES: O=C(NC[C@H]1CN(c2ccc(N3CCOCC3=O)cc2)C(=O)O1)c1ccc(Cl)s1 [Rivaroxaban, 5-chloro-N-((5S)-2-oxo-3-[4-(3-oxomorpholin-4-yl)phenyl]-1,3-oxazolidin-5-ylmethyl)thiophene-2-carboxamide]
- j 3, off-rate, free factor Xa (factor Xa [1]; [9]): (3.21 ± 0.28) × 10 ^−2 s ^−1
- j 4, off-rate, factor Xa-substrate complex (factor Xa [1]; [9]): (2.01 ± 0.17) × 10 ^−2 s ^−1
- k 3, on-rate, free factor Xa (factor Xa [1]; [9]): (3.77 ± 0.32) × 10 ^−2 nM ^−1 ·s ^−1
- k 4, on-rate, factor Xa-substrate complex (factor Xa [1]; [9]): (1.34 ± 0.04) × 10 ^−2 nM ^−1 ·s ^−1
- on- and off-rate constants for binding factor Xa alone (k 3 and j 3), on average faster than apixaban (factor Xa [1]; average of k3 and j3 ratios): 21 fold
- binding to the factor Xa-fluorogenic substrate complex (k 4 and j 4), on average faster than apixaban (factor Xa [1]; average of k4 and j4 ratios): 25 fold
- rate of factor Xa inhibition, faster than apixaban (factor Xa [1]; kinetic measurements, p < 0.001): up to 4 fold
- inhibition of factor Xa chromogenic activity in the presence of prothrombinase components [2]: over 95%
- effect on the aPTT (human plasma [3]): prolonged the PT and aPTT in a concentration-dependent manner
- ji 3, off-rate, E · M + I ⇔ E · M · I or E · M2 + I ⇔ E · M2 · I [4, 10]: (2.95 ± 0.11) × 10 ^−3 s ^−1
- ki 3, on-rate, E · M + I ⇔ E · M · I or E · M2 + I ⇔ E · M2 · I [4, 10]: (2.37 ± 0.22) × 10 ^−3 nM ^−1 ·s ^−1
- ji 2, off-rate, E · P + I ⇔ E · P · I [4, 11]: (1.12 ± 0.15) × 10 ^−2 s ^−1
- ki 2, on-rate, E · P + I ⇔ E · P · I [4, 11]: (1.24 ± 0.02) × 10 ^−2 nM ^−1 ·s ^−1
- K Pase1, lower than apixaban ([4]; free enzyme inhibition, prothrombin substrate): 454 fold
- dissociation rates, faster than apixaban ([4]; free factor Xa or factor Xa incorporated into the prothrombinase complex): about 3 fold
- ji 1, off-rate, E + I ⇔ E · I [4, 12]: (1.31 ± 0.11) × 10 ^−3 s ^−1
- ki 1, on-rate, E + I ⇔ E · I [4, 12]: (5.38 ± 0.35) × 10 ^−3 nM ^−1 ·s ^−1
- ki 3 on-rate with prothrombinase-meizothrombin complex, slower than apixaban ([4]; rivaroxaban slower than apixaban): 3 fold
- ji 1, off-rate, E + I ⇔ E · I ([5]; free prothrombinase): (2.15 ± 0.18) × 10 ^−3 s ^−1
- ki 1, on-rate, E + I ⇔ E · I ([5]; free prothrombinase): (3.46 ± 0.49) × 10 ^−2 nM ^−1 ·s ^−1
- ji 2, off-rate, E · rMZ + I ⇔ E · rMZ · I ([5]; prothrombinase-rMZ complex): (1.23 ± 0.08) × 10 ^−4 s ^−1
- ki 2, on-rate, E · rMZ + I ⇔ E · rMZ · I ([5]; prothrombinase-rMZ complex): (6.41 ± 0.44) × 10 ^−3 nM ^−1 ·s ^−1
- effect on the PT (human plasma [6]): prolonged the PT and aPTT in a concentration-dependent manner
- effect on endogenous thrombin potential (ETP) [7]: decreased endogenous thrombin potential (ETP)
- effect on lag time [7]: prolonged the lag time
- effect on peak thrombin concentration [7]: reduced peak thrombin concentration
- inhibition at 0.02 µM (factor Xa [8]): ~85%

SMILES: COc1ccc(-n2nc(C(N)=O)c3c2C(=O)N(c2ccc(N4CCCCC4=O)cc2)CC3)cc1 [Apixaban, 1-(4-methoxyphenyl)-7-oxo-6-(4-(2-oxopiperidin-1-yl)phenyl)-4,5,6,7-tetrahydro-1H-pyrazolo[3,4-c]pyridine-3-carboxamide]
- effect on the aPTT (human plasma [3]): prolonged the PT and aPTT in a concentration-dependent manner
- effect on the PT (human plasma [6]): prolonged the PT and aPTT in a concentration-dependent manner
- effect on endogenous thrombin potential (ETP) [7]: decreased endogenous thrombin potential (ETP)
- effect on lag time [7]: prolonged the lag time
